Measured values as given in ChEMBL document CHEMBL5620358, “Proteolysis-targeting chimeras in biotherapeutics: Current trends and future applications” (Eur J Med Chem, 2023).
pIC50: −log10 of the molar value. One block for each molecule: values may come before it.

Legend:
[1] = Induction of AR degradation in castrated mouse model xenografted with human VCaP cells at 1 mg/kg; assay type: functional
[2] = target: von Hippel-Lindau disease tumor suppressor/Haloalkane dehalogenase (Rhodococcus sp, UniProt P40337+P0A3G3); test: PROTAC activity at VHL/HaloTag7-GFP fusion protein (unknown origin) assessed as induction of fusion protein degradation
[3] = target: von Hippel-Lindau disease tumor suppressor/Haloalkane dehalogenase (Rhodococcus sp) (UniProt P40337+P0A3G3); test: PROTAC activity at VHL/HaloTag7-GFP fusion protein (unknown origin) assessed as induction of fusion protein degradation relative to control
[4] = target: Protein cereblon/Macrophage migration inhibitory factor (Homo sapiens, UniProt P14174+Q96SW2); test: PROTAC activity at E3 ubiquitin ligase/MIF in human A549 cells assessed as induction of MIF degradation; assay type: cell-based
[5] = target: T1, Protein cereblon/Cyclin-dependent kinase 9 (Homo sapiens) (UniProt P50750+Q96SW2); test: PROTAC activity at E3 ubiquitin ligase/CDK9 in human MOLT-4 cells assessed as induction of CDK9 degradation at 250 nM by immunoblot analysis; assay type: cell-based
MCF7 = test: Cytotoxicity against human MCF7 cells assessed as inhibition of cell proliferation measured after 72 hrs by MTT assay; assay type: functional, cell-based; details: MCF7, 72 h
[6] = target: Protein cereblon/Bromodomain-containing protein 9 (Homo sapiens, UniProt Q9H8M2+Q96SW2); test: PROTAC activity at CRBN/BRD9 (unknown origin) assessed as induction of BRD9 degradation; assay type: protein assay
[7] = Antiproliferative activity against human TNBC cells assessed as inhibition of cell growth; assay type: functional, Breast carcinoma cell
[8] = target: T1, Protein cereblon/Cyclin-dependent kinase 9 (Homo sapiens); test: PROTAC activity at E3 ubiquitin ligase/CDK9 in human HCT-116 cells assessed as induction of CDK9 degradation at 20 uM measured after 6 hrs by western blot analysis; assay type: cell-based

SMILES: N#Cc1ccc(O[C@H]2CC[C@H](NC(=O)c3ccc(N4CCC(CN5CCN(c6cc7c(cc6F)C(=O)N(C6CCC(=O)NC6=O)C7=O)CC5)CC4)nn3)CC2)cc1Cl (some centres undefined) [BAVDEGALUTAMIDE]
Activity [1]: 90%

SMILES: O=C1CCC(N2C(=O)c3cccc(NCCCCCCCC(=O)Nc4ccc(N5Cc6ccc(O)cc6OC5=O)cc4)c3C2=O)C(=O)N1 (centres undefined)
DC50 [4]: 100 nM

SMILES: Nc1cccc2c1C(=O)N(C1CCC(=O)NC1=O)C2=O (centres undefined) [POMALIDOMIDE]
pIC50 (MCF7): 4.77

SMILES: COc1cc(-c2cn(C)c(=O)c(C)c2C)cc(OC)c1CN1CC[C@H](N2CCN(c3ccc(N[C@H]4CCC(=O)NC4=O)cc3F)CC2)C(F)(F)C1 [SENDEGOBRESIB]
DC50 [6]: 2.7 nM

SMILES: Nc1c(C(=O)Nc2ccc(F)cc2)sc2nc(-c3cccs3)cc(C(F)(F)F)c12
inhibition (INH) [7]: 47.8%

Continued, values first:

DC50 [2]: 19 nM | Activity [3]: 90%
SMILES: Cc1ncsc1-c1ccc(CNC(=O)[C@@H]2C[C@@H](O)CN2C(=O)[C@H](C(C)C)N2Cc3ccccc3C2=O)c(OCCOCCOCCOCCCCCCCl)c1

Activity [5]: 99%
SMILES: CC(C)(C)c1cnc(CSc2cnc(NC(=O)C3CCN(CC(=O)NCCOCCOCCOCCNc4cccc5c4C(=O)N(C4CCC(=O)NC4=O)C5=O)CC3)s2)o1 (centres undefined)

Activity [8]: 65%
SMILES: O=C1CCC(N2C(=O)c3cccc(OCCCCCOc4ccc(CC(=O)Nc5cc(C6CCC6)[nH]n5)cc4)c3C2=O)C(=O)N1 (centres undefined)
